Results reported in a melting point compilation (Tetko et al.; mined from patent text by program, amines drawn as free bases though some values may be those of a salt).
Residues, ends and D or L forms follow the SMILES beside them. *: point of attachment. Tos = Cc1ccc(S(=O)(=O)*)cc1; Cam = NC(=O)C*

| SMILES | melting point [°C] |
| --- | --- |
| C#Cc1cnn(-c2ccnc3cc(Cl)ccc23)c1 | 174 to 175 |
| COc1cccc2c1OC(SC)C2=O (stereo unspecified) | 103 to 105 |
| O=C(NCCc1ccccc1)c1ccc(N2CCOCC2)nc1 | 163 to 165 |
| CC1(C)OC(=O)C(Oc2cccc(F)c2)=C1c1ccc(S(C)(=O)=O)cc1 | 136 to 138 |
| Cc1cc(S(=O)(=O)Nc2ccc(N)cc2)c2c(C)ccc(C(C)C)cc1-2 | 88 to 90 |
| COc1ccc(NC(=O)/C=C/c2ccc([N+](=O)[O-])c(F)c2)cc1[N+](=O)[O-] | 263 to 265 |
| O=C1COc2cc(Nc3ccc(O)cc3)ccc2N1 | 270 to 275 |
| Cc1cc(-c2ccc(C(F)(F)F)cc2)nc(-c2cccc(-c3ccc(S(N)(=O)=O)s3)c2)c1 | 211 |
| COc1ccc(-c2ccc(C(C)=O)cc2N)cc1 | 152 to 154 |
| CC(=O)N1CCC(n2cc(C3=C(c4cn(C)c5ccccc45)C(=O)NC3=O)c3ccccc32)CC1 | > 293 |
| Cc1oc(-c2ccco2)nc1COc1ccc(CON=C(CCCCCCC(=O)O)c2ccccc2)cc1 | 75 to 77 |
| CCNc1ncn(-c2ccccc2C)c(=O)n1 | 208 to 210 |
| Nc1cc([N+](=O)[O-])c(N)cc1Cl | 157 |
| CNC(=O)N(O)CC#Cc1cccc(C2=N[C@H](c3ccccc3)CO2)c1 | 163 to 165 |
| Cc1ccc2c(c1)c(=O)c(CO)cn2C | 171 to 173 |
| COc1cc(-c2oc3c(OC)cc(/C=C/CO)cc3c2C)ccc1O | 180 to 183 |
| COC(=O)CCc1cc2ccccc2n1S(=O)(=O)c1ccccc1 | 95 to 99 |
| CCOC(=O)C(C)(C)c1ccc(Br)c([N+](=O)[O-])c1 | 42 to 45 |
| CC(=O)NNc1ccnc2c(NC(=O)c3c(Cl)cccc3Cl)ccc(Cl)c12 | 158 to 161 |
| CN1CC(CNCCC#N)CC2c3cccc4[nH]cc(c34)CC21 (stereo unspecified) | 169 to 171 |
| CC[C@@H](O)CC(=O)N[C@H]1CC[C@H](CCN2CCN(c3nccc4c3OCC4)CC2)CC1 | 146 |
| Nc1cc(SC(F)(F)F)cc(Br)c1N | 60 to 61 |
| COc1ccc(C2(Cn3ccnc3)CC(CNc3ccccc3C)ON2C)cc1 (stereo unspecified) | 110 to 111 |
| O=S(=O)(Nc1nc2ncc(Cl)cn2n1)c1ccccc1Cl | 256 to 260 |
| Cn1cc2c(n1)-c1sccc1N(C(=O)c1ccc(NC(=O)C3CCCCC3)cc1)CC2 | 240 to 242 |
| COc1ccc(-c2cccc3c2COC3=O)c2c1OCCO2 | 158 to 160 |
| CC(=O)n1ccc2c(I)ncnc21 | 123 to 124 |
| Fc1cc(F)c(N=C2NCCN2)c(F)c1F | 167 to 168 |

Now from value to compound:

| melting point [°C] | SMILES |
| --- | --- |
| 117 to 121 | COC(=O)C(O)C(CC(C)C)NC(=O)C(Cc1c[nH]cn1)NC(=O)C(CC(=O)N(C)C)Cc1cccc2ccccc12 (mixture of isomers) |
| 168 | CCSc1nc(NC(C)=O)ccc1[N+](=O)[O-] |
| 168 to 170 | COc1cc([N+](=O)[O-])c(CCCCC(=O)O)c([N+](=O)[O-])c1O |
| 57 to 58 | CCCNC(=O)c1ccsc1N=C(OCCC)OCCC |
| 168 | O=C1c2cccc(O)c2C(=O)c2c(NCCCCO)ccc(O)c21 |
| 195 to 196 | Cc1ccc(S(=O)(=O)N2CCC[C@H]2C(=O)N[C@@H](Cc2ccc(OCC(N)=O)cc2)C(=O)O)cc1 (Tos-Pro-Tyr(Cam)-OH) |
| 197 to 198 | COc1ccccc1NC(=O)Nc1ccc(CC(=O)NC(CC(C)C)c2ncc(CCC(=O)O)s2)cc1 (stereo unspecified) |
| 129 to 131 | COC(=O)CNc1cc2cc(OC)ccc2cc1OCc1ccccc1 |
| 73 to 80 | C=C(CC(C)C)C(=O)NCC(=O)O |
| 37 to 38 | CCCCCCCCc1ccccc1CCC(NC(C)=O)(C(=O)OCC)C(=O)OCC |
| 116 to 118 | CC(CC(=O)O)CC(=O)Nc1ccc(Cl)cc1 (stereo unspecified) |
| 165 to 166 | CCOc1ccc2[nH]cc(CC(C)(N)C(=O)OC)c2c1 (racemic) |
| 98 to 101 | CCc1cc(C)cc(CC)c1NC(=S)NC(C)(C)CC |
